According to patent US8071810B2, “C5a receptor antagonists” (Jerini AG, priority 2005, dated 2011):
≈ marks a conversion by molar mass, not a printed value. Where “and” joins values, the source holds several entries; their conditions need not be identical. Equal entries are not always repeated. Where two headings read alike, the source gives them in different places.

Experiments:
[1] = molecular target: T1, human C5a receptor (CD88) (Homo sapiens, UniProt P21730); assay: C5a induced enzyme (glucosaminidase) release assay in RBL cells expressing the human C5a receptor (Example 28); format: cell-based; conditions: RBL cells with human C5aR
T1 construct: expressed in transfected cells; host or cells: rat basophilic leukemia (RBL) cells, stably transfected
T1 sequence (P21730 1-350): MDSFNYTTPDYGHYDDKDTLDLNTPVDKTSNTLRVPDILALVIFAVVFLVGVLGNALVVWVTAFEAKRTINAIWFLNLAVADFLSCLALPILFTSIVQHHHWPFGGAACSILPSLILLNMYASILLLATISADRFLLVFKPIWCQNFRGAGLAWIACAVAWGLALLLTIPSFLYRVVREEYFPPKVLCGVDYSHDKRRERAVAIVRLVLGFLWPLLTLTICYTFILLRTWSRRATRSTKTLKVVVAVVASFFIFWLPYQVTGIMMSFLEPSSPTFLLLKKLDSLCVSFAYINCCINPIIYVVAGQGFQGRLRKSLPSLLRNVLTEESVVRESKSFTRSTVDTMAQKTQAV
Procedure, shortened: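 Rat basophilic leukemia (RBL) cells expressing human C5a receptor, at 2×10^6 cells/ml, primed with cytochalasin B, then incubated with test compound 10 min at 37 °C.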

[2] = system: E. coli induced oxidative burst in human whole blood; assay: E. coli induced oxidative burst in human whole blood (Phagoburst kit, Example 26); format: cell-based; conditions: read-out: IC50 for the inhibition of the E. coli induced oxidative burst in human whole blood
Procedure: The whole blood assay is carried out according to the instructions from the Phagoburst-Kit (Orpegen Pharma). 50 μg/ml of Refludan is used to inhibit blood clotting (Mollnes et al. 2002 Blood 100: 1869). Freshly drawn, anticoagulated blood is cooled over ice and 100 μl thereof are added to 10 μl of the compound solution containing at most 1.3% of DMSO. The mixture is incubated for 10 minutes at 37° C. After this the samples are put on ice again and 20 μl of opsonisated E. coli suspension (10^9 cells/ml) is added followed by 10 minutes of incubation at 37° C. 20 μl of the substrate are added to the cells followed by another 10 minutes of incubation at 37° C. After this 2 ml of lysis buffer are added to the cells, which are then kept at room temperature for 20 minutes. The cellular components are separated by centrifugation at 250×g for 5 minutes. The supernatant is discarded and 3 ml of washing solution are added to the pellet. The cells are centrifuged again and the resulting pellet is taken up in 200 μl DNA staining solution. The neutrophiles are analysed by means of a FACS device (FACSCalibur, Becton-Dickinson) according to the parameters given in the manual. […] It can be seen that, due to the determined activity, the compounds of this invention are suited to be used as therapeutics in human.

C5a receptor [3] = molecular target: T2, C5a receptor (Homo sapiens, UniProt P21730); assay: Binding of 125I-C5a to human C5aR transfected HEK293 cells (Example 27); parameters: expressed in transfected cells; host or cells: HEK293 cells; conditions: 125I-C5a tracer, read-out: IC50 for the inhibition of the binding of C5a to the C5a receptor
T2 sequence (P21730 1-350): T1 sequence (P21730 1-350)
Procedure: The binding studies are done as determination of IC50 values with radioactively labeled C5a (125I) as tracer. For this purpose, human C5aR transfected HEK293 cells are adjusted to a concentration of […]. 30 μl of the cell suspension are added into a microtiter plate. Then the C5a receptor antagonists are added followed by 10 minutes pre-incubation at room temperature. After that, 10 μl of labelled C5a are added (15.000 cpm). The mixture is now incubated over ice for 30 minutes. After this the cells are isolated by means of a filter plate (Millipore MHVB 4510) and washed two times with 100 μl HAG-CM each (see example 32). The cells are dried and, after transferring the filter plate onto the adapter plate (Canberra 6005178), 50 μl/well Microscint 0 are added and the plate is measured in the scintillation counter.

[4] = AB permeability in TC-7 cell based assay (Example 34); format: in vitro ADME; conditions: human, Caco-2, TC-7 cells, apical pH 6.5 / basolateral pH 7.4, 120 min
Procedure: Compounds to be tested are prepared at a concentration of 50 μM in HBSS-MES (5 mM, pH 6.5) (from a 10 mM stock solution in 100% DMSO). ^14C-mannitol (about 4 μM) is added and the solution is mixed and centrifuged. The supernatant is added to the apical side of a TC-7 cell culture (passage 15, in 24 well transwell plate) to obtain a DMSO concentration of 1%. At the basolateral side HBSS-HEPES (5 mM, pH 7.4) is placed. Subsequently, the cells are incubated for 120 minutes at 37° C. The integrity of the TC-7 cell layer is checked by means of the added mannitol (Papp <2.5 10^−6 cm/s). The Permeabilität Papp [cm/s] is equal to (VR×CR120)/(Δt×A×(CD,mid−CR,mid)). VR is the volume of the receiver chamber, CR120 the concentration the test compound in the receiver chamber after 120 minutes, Δt the incubation time, A the area of the TC-7 cell layer, CD,mid the midpoint concentration of the test substance in the donor chamber and CR,mid the concentration of the test compound in the receiver chamber.

[5] = molecular target: T1, human C5a receptor (CD88); assay: Agonism in enzyme release assay without C5a stimulus (Example 32); format: cell-based; conditions: concentration applied 7.1 μM
Procedure: The assay has been described by Köhl (Köhl 1997 The Anaphylatoxins. In: Dodds, A. W., Sim, R. B. (Eds.), Complement: A Practical Approach. Oxford: 135). Basophile leukemia cells from rats (RBL), which express the human C5a receptor (CD88), are cultivated in DMEM with 10% fetal calf serum, 100 U/ml penicillin, 100 μg/ml streptomycin and 2 mM glutamin (all constituents are from Biochrome, Berlin) at 37° C. and with 10% CO2 until a confluent layer is obtained. All following details refer to a tissue culture flask with 75 cm^2 surface. The used up medium is removed. The cells are washed with 10 ml PBS (Dulbecco's PBS, Biochrome) and then covered with 3 ml cell dissociation solution (CDS, Sigma). The cells are incubated for 1 minute at room temperature. Then the CDS is removed and the cells are incubated for further 10-15 minutes at 37° C. to detach the cells completely from the flask. 20 μl solution of the compound to be testet are used in the assay. The assay solution must not contain more than 2.8% DMSO. The dilution series are prepared in ⅓ or ½ steps. To the 20 μl of the compound solutions 75 μl RBL cells are added which are prepared as follows: After the detachment of the cells from the flask surface they are taken up with 10 ml HAG-CM (20 mM HEPES; 125 mM NaCl, 5 mM KCl, 1 mM CaCl2, 1 mM MgCl2, 0.5 mM glucose, 0.25% BSA. HEPES preparation: 2.3 g/l HEPES salt+2.66 g/l HEPES acid) thermostated at 37° C. The cells are counted and centrifuged (200 g, 10 min). The cell pellet is taken up with pre-heated HAG-CM, and the cell density is adjusted to 2×10^6 Zellen/ml. The cells are incubated for 5 minutes at 37° C. 2.7 μl of a cytochalasin B solution (1000 μg/ml in DMSO, Sigma) are added per ml cell suspension. The Zellen are incubated for another 3 min at 37° C. Then, 75 μl of the cell suspension are added to the 20 μl solution containing the compounds to be tested. Thus a volume of […] per well is obtained. The cells are again incubated for 10 minutes at 37° C. Then 10 μl hrC5a (10.5 nM in HAG-CM, Sigma) are added per well, which is followed by 5 minutes incubation at 37° C. After this the plates are put on ice and centrifuged for 3 minutes at 1200×g and 4° C. 75 μl of the supernatant are added to 100 μl substrate solution (2.7 mg/ml p-nitrophenyl-N-acetyl-b-D-glucosaminide (Sigma) in 42.5 mM sodium acetate, pH 4.5). The plate is incubated for 1 hour at 37° C. Per well 75 μl 0.4 M glycine (pH 10.4) are added. After this the plate can be measured at a wave length of 405 nm. The IC50 value is determined by solving the four parameter equation y=((A−D)/(1+(x/C)^B))+D.
The only difference is the fact that 30 μl of the substance to be tested are mixed with 75 μl of the cell suspension described in example 28. The cells are not pre-incubated and no C5a is added to stimulate enzyme release.

[6] = Solubility in aqueous HEPES buffer by HPLC (Example 33); format: physicochemical; conditions: kinetic from dmso stock
Procedure: To determine the solubility the compound to be measured is dissolved (e.g, […] of a 5 mM solution in DMSO) in organic solvent (e.g. 198 μl DMSO) as well as in aqueous buffer solution (e.g. 198 μl HEPES buffer). Both solutions are analyzed via analytical HPLC and the areas under the peaks are compared. The value for the organic solution is taken as 100%.

C5a receptor [7] = molecular target: T2, C5a receptor; conditions: cited from earlier work
[8] = Stability (shelf life) as solid TFA salt, RP-HPLC (Example 25); format: physicochemical; conditions: light, room temperature, up to 7 days
Procedure: The fractions containing the desired compound are lyophilized. In this way 1-40 mg of the compounds 11 and 13 are isolated as solid. Due to the basic amino groups the compounds are obtained as TFA salts. 0.5-10 mg of the solid are stored under the influence of light at room temperature to determine their stability over time.
The conditions were as follows:
FIG. 1 A): after purification via HPLC (solution in MeCN/H2O/TFA),
FIG. 1 B) after lyophilization (0 days of storage as solid)
FIG. 1 C) after 7 days of storage as solid

[9] = inhibition of C5a induced enzyme release, read-out: Activity-range (antagonistic activity, IC50 enzyme release)
[10] = read-out: IC50 for the inhibition of C5a induced enzyme release

CCc1c(N)cc(Cl)c(CC)c1NC(=O)N(c1ccc(NC)cc1)[C@@H](C)c1ccccc1 [compound 132, (S)-3-(3-amino-5-chloro-2,6-diethyl-phenyl)-1-(4-methylamino-phenyl)-1-(1-phenyl-ethyl)-urea]
IC50 [1, 9]: < 0.06 µM | IC50 [2]: 0.62 µM | IC50 (C5a receptor [3]): 0.0434 µM

CCc1c(N)cc(Cl)c(CC)c1NC(=O)N(Cc1ccc(Cl)cc1)c1ccc(OC)c2cccnc12 [compound 125, 3-(3-amino-5-chloro-2,6-diethyl-phenyl)-1-(4-chloro-benzyl)-1-(5-methoxy-chinolin-8-yl)-urea]
IC50 [1, 9]: 0.06 to 0.2 µM | Papp A→B at 120 min, 50 μM [4]: 2.9 ×10⁻⁶ cm/s | Agonism (% of the maximum enzyme release induced by C5a) [5]: 0.00% | solubility [6]: 4 µM (≈ 2.09 µg/mL)

Cc1ccccc1C1c2ccccc2CCN1CC(=O)N(Cc1cccc(O)c1)C1Cc2ccccc2C1 (stereo not shown) [Compound 9, N-(3-Hydroxy-benzyl)-N-indane-2-yl-2-(1-o-tolyl-3,4-dihydro-1H-isochinolin-2-yl)-acetamide, reference compound]
IC50 [1, 10]: 7.15 µM and 7.14 µM | activity, inhibition of C5a induced calcium mobilization (C5a receptor [7]): 24 nM

CCc1c(N)cc(Cl)c(CC)c1NC(=O)N(Cc1ccc(OC)cc1)c1ccc(C(C)C)cc1 [compound 13]
Stability on storage as solid [8]: does not show such instabilities

CCc1c(N)cc(Cl)c(CC)c1NC(=O)N(c1ccc(OC)cc1F)[C@@H](C)c1ccc(Cl)cc1 [compound 102, (S)-3-(3-amino-5-chloro-2,6-diethyl-phenyl)-1-[1-(4-chloro-phenyl)-ethyl]-1-(2-fluoro-4-methoxy-phenyl)-urea]
Papp A→B at 120 min, 50 μM [4]: 1.1 ×10⁻⁶ cm/s | IC50 [2]: 3.2 µM | Agonism (% of the maximum enzyme release induced by C5a) [5]: 0.00%

CN(CC(=O)N(Cc1ccccc1F)C1Cc2ccccc2C1)C(c1ccccc1)c1ccccc1 [Compound 10, 2-(Benzhydryl-methyl-amino)-N-(2-fluoro-benzyl)-N-indane-2-yl-acetamide, reference compound]
IC50 [1, 10]: > 4.76 µM | IC50 [1, 9]: > 5 µM | activity, inhibition of C5a induced calcium mobilization (C5a receptor [7]): 465 nM
